Measured values from patent US5418218A, “Histidyl-proline diketopiperazine (cyclo his-pro) a cns-active pharmacologic agent” (The University of Maryland at Baltimore, priority 1992, dated 1995).

How the values were obtained:
[1] = Weight loss activity of cyclic dipeptides; settings: in vivo
Description: As to the active ingredient, while the effect as to weight loss appears to be stereospecific, it is contemplated that alterations can be made to the compound to enhance the activities thereof contemplated to fall within the scope of the instant invention.

[2] = Stability in vivo and in drinking water
Description: While it is known that the pyroglutamic acid residue often confers stability on a peptide carrying the same at a terminus, such as TRH, the precursor of cyclo (His-Pro), the pyroglutamic acid residue is not present in cyclo His-Pro.
The carrier(s) must be "acceptable" in the sense of being compatible with other ingredients of the formulation and not deleterious to the recipient thereof. […] Formulations suitable for administration conveniently comprise sterile aqueous solutions of the active chemical, which may be conveniently prepared by mixing the active chemical with water, and after rendering said solution sterile it may be presented in sealed containers.

[3] = Oral cyclo (His-Pro) in drinking water, weight gain in rodents
[4] = Oral administration to rats, appearance in plasma; settings: administered orally to rats
[5] = tested on: pancreatic or intestinal enzymes; test: Resistance to proteolytic digestion
[6] = Passage of the blood-brain barrier; type: in vivo; settings: non-CNS administration
Procedure: Thus, it was determined in the development of the instant invention that cyclo (His-Pro), unlike the vast majority of biologics that are susceptible to degradation in the gastrointestinal tract, can be administered by those routes normally employed for drug administration, such as intramuscularly and intravenously, but also that cyclo (His-Pro) can be administered orally. […] Although not an absolute barrier of the passage of compounds into the brain, many compounds cross very slowly if at all to any effective extent.

[7] = Intraperitoneal cyclo (His-Pro), inhibition of appetite in animals receiving liquid diets; type: in vivo; settings: intraperitoneally, 20 mg/kg/day for 24 days
[8] = Intracerebroventricular administration / lateral ventricle infusion, appetite and weight gain; type: in vivo, rodents; settings: administered IVT acutely
[9] = cited from earlier work
[10] = oral in drinking water, versus control animals, P<0.02

In the case of `O=C(O)CCC1NC(=O)C(Cc2ccccc2)NC1=O` (stereo not shown) [cyclo (Glu-Phe)], the weight loss activity [1] is reported as “did not provide weight loss activity”.
For `O=C1N[C@@H](Cc2cnc[nH]2)C(=O)N2CCC[C@@H]12` [cyclo (His-Pro), L-histidyl-L-proline diketopiperazine], the “effectiveness after addition to water” value ([2]; added to water, such as drinking water from the tap) was “retain effectiveness”, the “enzymatic degradation in vivo” value ([2]; in vivo) was “resistant to enzymatic degradation in vivo” and the half-life ([2]; in vivo) was “long half-life”. The “cause of weight loss (satiety versus illness)” value ([3]; experimental studies) was “due to induction of satiety, not of nausea, vomiting or illness”, the “mean body weight reached by experimental animals” value ([3]; oral in drinking water, 1 or 2 mg/kg/day for 14 to 18 days, controls gained from a mean of 248 to 396 gms) was 384 gms and the “inhibition of weight gain” value [3, 10] was 12 grams. For the same molecule, the “inhibition of weight gain (minus %)” value [3, 10] was 8.1%, the “form appearing in plasma” value [4] was “completely unaltered biochemically” and the “resistance to proteolytic digestion” value [5] was “uniquely resistant to proteolytic digestion”. The blood-brain barrier passage [6] was “crosses the blood-brain barrier to achieve effective concentrations in a short period of time”, the inhibition of appetite [7] was “can induce inhibition of appetite” and the duration of action [8] was “about 12 hours”. For the same molecule, the “duration of appetite reduction” value ([9]; after intracerebroventricular administration to rodents) was at most 12 h and the “duration of inhibition of weight gain” value ([9]; infused into the lateral ventricle) was 2 weeks.
With `O=C1[C@@H]2CCCN2C(=O)[C@@H]2CCCN12` [cyclo (Pro-Pro)] the weight loss activity [1] was “did not provide weight loss activity”.
